Results from patent US9388189B2, “Pyrrolotriazinone derivatives as PI3K inhibitors” (ALMIRALL, S.A., priority 2012, dated 2016).

Molecular target: PI3Kδ (PI3Kd) (Homo sapiens (Human), UniProt O00329)
Experiment: PI3K HTRF enzymatic inhibition assay (cell-free), delta isoform
Conditions: read-out: IC50 PI3Kd HTRF; recombinant PI3K delta, [ATP] 15 μM, [PIP2] 2 μM, 30 min preincubation
Description: Compounds were screened for their ability to inhibit PI3Kα (PI3Ka), PI3Kβ (PI3Kb), PI3Kδ (PI3Kd) and PI3Kγ (PI3Kg) using a cell-free based PI3K HTRF™ assay (Millipore, ref. #33-017).
PI-3 Kinase HTRF kit (ref. #33-037) and the different PI3K recombinant isoforms (ref. #14-602, ref. #14-603, ref. #14-604, ref. #15-558 for Alpha, Beta, Delta and Gamma respectively) were purchased at Millipore (expressed in insect cells). ATP was purchased at Sigma Aldrich (ref. #A7699).
The compounds were pre-incubated with the enzyme for 30 min before starting of the catalytic reaction. [PIP2] was used at its Km. […] Time of assay and [Enzyme] were optimized to work in the linear range. Stop and Detection mixtures were used as specified in the Millipore PI-3 Kinase kit.
Reaction time and enzyme concentration in the assay will depend of each batch.
All experiments were analysed using Activity Base software from IDBS and the four-parameter log equation.

PI3Kδ (PI3Kd), sequence (O00329 whole entry, canonical isoform): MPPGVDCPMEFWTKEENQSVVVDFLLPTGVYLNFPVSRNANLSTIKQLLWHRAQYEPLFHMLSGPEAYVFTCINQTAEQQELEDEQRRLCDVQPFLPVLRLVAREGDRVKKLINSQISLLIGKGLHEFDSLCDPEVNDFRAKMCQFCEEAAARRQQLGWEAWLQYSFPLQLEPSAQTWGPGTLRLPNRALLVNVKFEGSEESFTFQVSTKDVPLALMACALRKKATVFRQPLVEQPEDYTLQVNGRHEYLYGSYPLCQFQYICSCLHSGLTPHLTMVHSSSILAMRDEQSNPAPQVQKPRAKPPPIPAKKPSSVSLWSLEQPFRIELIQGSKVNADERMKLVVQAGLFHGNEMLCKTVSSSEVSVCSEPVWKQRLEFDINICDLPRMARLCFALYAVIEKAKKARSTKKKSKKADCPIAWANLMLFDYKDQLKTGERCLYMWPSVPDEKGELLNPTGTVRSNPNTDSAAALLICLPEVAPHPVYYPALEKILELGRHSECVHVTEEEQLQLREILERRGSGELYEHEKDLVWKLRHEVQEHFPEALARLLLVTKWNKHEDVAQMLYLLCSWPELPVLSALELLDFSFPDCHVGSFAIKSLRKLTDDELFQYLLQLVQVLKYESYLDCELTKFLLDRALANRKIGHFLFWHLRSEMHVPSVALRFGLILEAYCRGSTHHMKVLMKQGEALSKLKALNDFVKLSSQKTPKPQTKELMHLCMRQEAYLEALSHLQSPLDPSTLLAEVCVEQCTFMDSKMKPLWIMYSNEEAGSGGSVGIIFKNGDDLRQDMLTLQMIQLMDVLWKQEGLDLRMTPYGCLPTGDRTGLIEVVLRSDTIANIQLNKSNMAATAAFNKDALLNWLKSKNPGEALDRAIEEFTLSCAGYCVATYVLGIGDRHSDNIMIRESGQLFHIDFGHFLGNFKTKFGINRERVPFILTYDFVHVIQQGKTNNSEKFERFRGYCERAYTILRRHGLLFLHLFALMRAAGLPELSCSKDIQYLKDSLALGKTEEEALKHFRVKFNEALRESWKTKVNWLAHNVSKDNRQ
PI3Kδ (PI3Kd), sequence (P27986 whole entry partner, canonical isoform): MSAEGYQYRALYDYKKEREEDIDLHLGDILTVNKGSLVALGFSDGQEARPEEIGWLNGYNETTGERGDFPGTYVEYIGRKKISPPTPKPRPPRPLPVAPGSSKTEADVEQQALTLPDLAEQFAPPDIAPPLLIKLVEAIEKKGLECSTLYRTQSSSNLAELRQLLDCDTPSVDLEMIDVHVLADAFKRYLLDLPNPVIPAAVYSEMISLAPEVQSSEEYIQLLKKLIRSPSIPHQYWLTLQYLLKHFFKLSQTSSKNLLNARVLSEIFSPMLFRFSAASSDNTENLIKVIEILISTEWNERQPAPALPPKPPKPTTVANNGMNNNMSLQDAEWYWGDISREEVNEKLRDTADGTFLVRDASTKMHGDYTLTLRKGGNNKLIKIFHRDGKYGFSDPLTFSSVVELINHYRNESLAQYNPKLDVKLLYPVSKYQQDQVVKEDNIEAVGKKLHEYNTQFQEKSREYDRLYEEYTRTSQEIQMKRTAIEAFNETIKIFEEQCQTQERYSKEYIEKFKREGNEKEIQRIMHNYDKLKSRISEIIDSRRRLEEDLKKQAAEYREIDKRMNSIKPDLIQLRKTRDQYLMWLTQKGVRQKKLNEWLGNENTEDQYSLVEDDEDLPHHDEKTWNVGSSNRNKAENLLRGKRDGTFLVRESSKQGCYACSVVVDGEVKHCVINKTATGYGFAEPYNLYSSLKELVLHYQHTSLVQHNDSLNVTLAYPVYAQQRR

Row | Compound | IC50 [nM]
1 | Cc1ccn2nc([C@H](C)Nc3ncnc(N)c3-c3ccc(N4CCNCC4)cc3)n(-c3ccccc3)c(=O)c12 [Example 162, (S)-2-(1-((6-Amino-5-(4-(piperazin-1-yl)phenyl)pyrimidin-4-yl)amino)ethyl)-5-methyl-3-phenylpyrrolo[2,1-f][1,2,4]triazin-4(3H)-one] | 132
2 | C[C@H](Nc1ncnc2[nH]cc(-c3cc(NS(C)(=O)=O)cc4[nH]ccc34)c12)c1nn2cccc2c(=O)n1-c1ccccc1 [Example 165, (S)—N-(4-(4-((1-(4-Oxo-3-phenyl-3,4-dihydropyrrolo[2,1-f][1,2,4]triazin-2-yl)ethyl)amino)-7H-pyrrolo[2,3-d]pyrimidin-5-yl)-1H-indol-6-yl)methanesulfonamide] | 5
3 | Cc1ccn2nc(CNc3ncnc(N)c3-c3cncc(C(F)F)c3)n(-c3ccccc3)c(=O)c12 [Example 169, 2-(((6-Amino-5-(5-(difluoromethyl)pyridin-3-yl)pyrimidin-4-yl)amino)methyl)-5-methyl-3-phenylpyrrolo[2,1-f][1,2,4]triazin-4(3H)-one] | 3
4 | Cc1ccn2nc([C@H](C)Nc3ncnc(N)c3-c3cc(O)c4ccn(S(=O)(=O)c5ccc(O)cc5F)c4c3)n(-c3ccccc3)c(=O)c12 [Example 171, (S)-2-(1-((6-Amino-5-(1-((2-fluoro-4-hydroxyphenyl)sulfonyl)-4-hydroxy-1H-indol-6-yl)pyrimidin-4-yl)amino)ethyl)-5-methyl-3-phenylpyrrolo[2,1-f][1,2,4]triazin-4(3H)-one] | 5
5 | Cc1ccn2nc([C@H](C)Nc3ncnc4[nH]cc(-c5cc(NS(C)(=O)=O)cc6[nH]ncc56)c34)n(-c3ccccc3)c(=O)c12 [Example 181, (S)—N-(4-(4-((1-(5-Methyl-4-oxo-3-phenyl-3,4-dihydropyrrolo[2,1-f][1,2,4]triazin-2-yl)ethyl)amino)-7H-pyrrolo[2,3-d]pyrimidin-5-yl)-1H-indazol-6-yl)methanesulfonamide] | 5
6 | COc1ccc(S(=O)(=O)n2ccc3ccc(-c4c(N)ncnc4N[C@@H](C)c4nn5ccc(C)c5c(=O)n4-c4ccccc4)cc32)cc1 [Example 199, (S)-2-(1-((6-Amino-5-(1-((4-methoxyphenyl)sulfonyl)-1H-indol-6-yl)pyrimidin-4-yl)amino)ethyl)-5-methyl-3-phenylpyrrolo[2,1-f][1,2,4]triazin-4(3H)-one] | 3
7 | CCNc1ncc(-c2c(N)ncnc2N[C@@H](C)c2nn3ccc(C)c3c(=O)n2-c2ccccc2)cc1NS(=O)(=O)c1ccc(O)cc1 [Example 218, (S)—N-(5-(4-Amino-6-((1-(5-methyl-4-oxo-3-phenyl-3,4-dihydropyrrolo[2,1-f][1,2,4]triazin-2-yl)ethyl)amino)pyrimidin-5-yl)-2-(ethylamino)pyridin-3-yl)-4-hydroxybenzenesulfonamide] | 5
8 | Cc1ccn2nc([C@H](C)Nc3ncnc4[nH]cc(-c5ccc(NS(=O)(=O)N(C)C)cc5O)c34)n(-c3ccccc3)c(=O)c12 [Example 239, N′-[3-Hydroxy-4-(4-{[(1S)-1-(5-methyl-4-oxo-3-phenyl-3,4-dihydropyrrolo[2,1-f][1,2,4]triazin-2-yl)ethyl]amino}-7H-pyrrolo[2,3-d]pyrimidin-5-yl)phenyl]-N,N-dimethylsulfamide] | 2
9 | (S)—N-((1H-Pyrazol-4-yl)ethyl)-4-((1-(5-methyl-4-oxo-3-phenyl-3,4-dihydropyrrolo[2,1-f][1,2,4]triazin-2-yl)ethyl)amino)-7H-pyrrolo[2,3-d]pyrimidine-5-carboxamide [Example 88] | 41

Continued, values first:

Row | IC50 [nM] | Compound
10 | 0.2 | Cc1ccn2nc([C@H](C)Nc3ncnc4[nH]cc(-c5ccn(-c6cccc(O)c6)n5)c34)n(-c3ccccc3)c(=O)c12 [Example 163, (S)-2-(1-((5-(1-(3-Hydroxyphenyl)-1H-pyrazol-3-yl)-7H-pyrrolo[2,3-d]pyrimidin-4-yl)amino)ethyl)-5-methyl-3-phenylpyrrolo[2,1-f][1,2,4]triazin-4(3H)-one]
11 | 2 | Cc1ccn2nc([C@H](C)Nc3ncnc(N)c3-c3cccc(C(=O)Nc4cccc(O)c4)c3)n(-c3ccccc3)c(=O)c12 [Example 168, (S)-3-(4-Amino-6-((1-(5-methyl-4-oxo-3-phenyl-3,4-dihydropyrrolo[2,1-f][1,2,4]triazin-2-yl)ethyl)amino)pyrimidin-5-yl)-N-(3-hydroxyphenyl)benzamide]
12 | 0.3 | Cc1ccn2nc([C@H](C)Nc3ncnc4[nH]cc(-c5cc(O)cc(NC(N)=O)c5)c34)n(-c3ccccc3)c(=O)c12 [Example 175, (S)-1-(3-Hydroxy-5-(4-((1-(5-methyl-4-oxo-3-phenyl-3,4-dihydropyrrolo[2,1-f][1,2,4]triazin-2-yl)ethyl)amino)-7H-pyrrolo[2,3-d]pyrimidin-5-yl)phenyl)urea]
13 | 1 | C[C@H](Nc1ncnc2[nH]cc(-c3cc(NS(C)(=O)=O)cc(OS(C)(=O)=O)c3)c12)c1nn2cccc2c(=O)n1-c1ccccc1 [Example 176, (S)-3-(Methylsulfonamido)-5-(4-((1-(4-oxo-3-phenyl-3,4-dihydropyrrolo[2,1-f][1,2,4]triazin-2-yl)ethyl)amino)-7H-pyrrolo[2,3-d]pyrimidin-5-yl)phenyl methanesulfonate]
14 | 0.7 | CCOc1ncc(-c2c(N)ncnc2N[C@@H](C)c2nn3ccc(C)c3c(=O)n2-c2ccccc2)cc1NS(=O)(=O)c1ccc(O)cc1 [Example 187, (S)—N-(5-(4-Amino-6-((1-(5-methyl-4-oxo-3-phenyl-3,4-dihydropyrrolo[2,1-f][1,2,4]triazin-2-yl)ethyl)amino)pyrimidin-5-yl)-2-ethoxypyridin-3-yl)-4-hydroxybenzenesulfonamide]
15 | 0.4 | Cc1nnc(-c2cccc(-c3c[nH]c4ncnc(N[C@@H](C)c5nn6ccc(C)c6c(=O)n5-c5ccccc5)c34)c2)o1 [Example 188, (S)-5-Methyl-2-(1-((5-(3-(5-methyl-1,3,4-oxadiazol-2-yl)phenyl)-7H-pyrrolo[2,3-d]pyrimidin-4-yl)amino)ethyl)-3-phenylpyrrolo[2,1-f][1,2,4]triazin-4(3H)-one]
16 | 0.2 | Cc1ccn2nc([C@H](C)Nc3ncnc(N)c3C(=O)Oc3cc(O)cc(NS(C)(=O)=O)c3)n(-c3ccccc3)c(=O)c12 [Example 195, (S)-3-Hydroxy-5-(methylsulfonamido)phenyl 4-amino-6-((1-(5-methyl-4-oxo-3-phenyl-3,4-dihydropyrrolo[2,1-f][1,2,4]triazin-2-yl)ethyl)amino)pyrimidine-5-carboxylate]
17 | 0.2 | Cc1ccn2nc([C@H](C)Nc3ncnc4[nH]cc(-c5cc(NS(C)(=O)=O)c6cc[nH]c6c5)c34)n(-c3ccccc3)c(=O)c12 [Example 209, (S)—N-(6-(4-((1-(5-Methyl-4-oxo-3-phenyl-3,4-dihydropyrrolo[2,1-f][1,2,4]triazin-2-yl)ethyl)amino)-7H-pyrrolo[2,3-d]pyrimidin-5-yl)-1H-indol-4-yl)methanesulfonamide]
18 | 0.3 | Cc1ccn2nc([C@H](C)Nc3ncnc4[nH]cc(-c5cc(NS(C)(=O)=O)cc(C(=O)N(C)C)c5)c34)n(-c3ccccc3)c(=O)c12 [Example 219, (S)—N,N-dimethyl-3-(4-((1-(5-methyl-4-oxo-3-phenyl-3,4-dihydropyrrolo[2,1-f][1,2,4]triazin-2-yl)ethyl)amino)-7H-pyrrolo[2,3-d]pyrimidin-5-yl)-5-(methylsulfonamido)benzamide]
19 | 0.4 | Cc1ccn2nc([C@H](C)Nc3ncnc4[nH]cc(-c5ccnc(N6CCC(N(C)C)CC6)c5)c34)n(-c3ccccc3)c(=O)c12 [Example 225, (S)-2-(1-((5-(2-(4-(Dimethylamino)piperidin-1-yl)pyridin-4-yl)-7H-pyrrolo[2,3-d]pyrimidin-4-yl)amino)ethyl)-5-methyl-3-phenylpyrrolo[2,1-f][1,2,4]triazin-4(3H)-one]
20 | 0.8 | (S)—N-(6-(4-Amino-6-((1-(5-methyl-4-oxo-3-phenyl-3,4-dihydropyrrolo[2,1-f][1,2,4]triazin-2-yl)ethyl)amino)pyrimidin-5-yl)-1H-indol-4-yl)-4-hydroxybenzenesulfonamide [Example 190]
